Source: patent publication US6469059B1, “Fungicidal composition and method for disease control of paddy-rice plants” (BASF Aktiengesellschaft, priority 1999, dated 2002)
Read-outs that look alike come from different tables or passages of the source.

Columns and labels:
Type in all cases: in vivo
[1] = system: Blast (Pyricularia oryzae); conditions: granules water-applied 7 days before inoculation
[2] = system: Helminthosporium leaf spot (Cochliobolus miyabeanus); experiment: Preventive effect by application against Helminthosporium leaf spot (foliar spray); conditions: foliar spray before inoculation, six-leave-stage rice
[3] = system: Sheath blight (Rhizoctonia solani); experiment: Preventive effect by paddy water application against Sheath blight; conditions: water-applied 7 days before inoculation
Description: Preventive Effect by Paddy Water Application Against Sheath Blight (Rhizoctonia solani)
By using pots of 1/8000 are, the compounds prepared according to the Formulations Examples which were diluted with water to a predetermined concentration were water-applied to ten-leave-stage rice plant (Kin-maze) cultivated under flooding. The treated pots were allowed to stand in a greenhouse for seven days, and the fungus nuclei of Sheath blight (Rhizoctonia solani) was inoculated at the root of the plant. Then, the plant was allowed to stand under humid conditions at 30° C. for one week, and then, the number of the disease lesion was determined to obtain the preventive index according to the criterion of Test Example 1.

[4] = system: Sheath blight (Rhizoctonia solani); experiment: Preventive effect by application against Sheath blight (foliar spray); conditions: foliar spray before inoculation, ten-leave-stage rice
Description: Preventive Effect by Application Against Sheat Blight (Rhizoctonia solani)
The wettable powders prepared according to the Formulation Examples which were diluted with water to a predetermined concentrations were sprayed to the stems and leaves of ten-leave-stage of rice plant (Kin-maze) cultivated in pots under flooding. After air-drying, the fungous nucleiof Sheath blight (Rhizoctonia solani) was inoculated at the root of the plant. After that, the plant was allowed to stand under humid conditions at 30° C. for one week, and then, the number of the disease lesion was determined to obtain the preventive index according to the criterion of Test Example 1.

[5] = system: Blast (Pyricularia oryzae); conditions: foliar spray before inoculation, rice plant (Kin-maze)
[6] = system: Blast (Pyricularia oryzae); conditions: sprayed one day after inoculation

Structure (SMILES): CC(Oc1ccc(Cl)cc1Cl)C(=O)NC(C)(C#N)C(C)C (stereo not shown) [Compound A, N-(1-cyano-1,2-dimethylpropyl)-2-(2,4-dichlorophenoxy)propanamide]
- Preventive index ([1]; 10 g/10a active ingredient): 3 (Preventive value 60 to 84%)
- Preventive index ([2]; 200 ppm active ingredient): 0
- Preventive index ([3]; 200 g/10a active ingredient): 0
- Preventive index ([4]; 200 ppm active ingredient): 0

Structure (SMILES): Cc1ccccc1C(=O)Nc1cccc(OC(C)C)c1 [Compound 2, 3′-isopropoxy-2-methylbenzanilide]
- Preventive index ([5]; 500 ppm active ingredient): 0
- Preventive index ([4]; 10 ppm active ingredient): 2

Structure (SMILES): Cc1nn(C)c(Cl)c1C(=O)Nc1cccc2c1COC2(C)C [Compound 4, 5-chloro-1,3-dimethyl-N-(1,1-dimethyl-2-oxa-4-indanyl)pyrazole-4-carboxamide]
- Preventive index ([1]; 200 g/10a active ingredient): 0

Structure (SMILES): CCOP(=O)(Sc1ccccc1)Sc1ccccc1 [Compound 16, O-ethyl-S,S-diphenyldithiophosphate]
- Preventive index ([5]; 50 ppm active ingredient): 3 (Preventive value 60 to 84%)

Structure (SMILES): C=CCOC1=NS(=O)(=O)c2ccccc21 [Compound 23, 3-allyloxy-1,2-benzoisothiazole-1,1-dioxide]
- Preventive index ([1]; 50 g/10a active ingredient): 3 (Preventive value 60 to 84%)

Structure (SMILES): O=C(Nc1ccccc1)N(Cc1ccc(Cl)cc1)C1CCCC1 [Compound 6, 1-(4-chlorobenzyl)-1-cyclopentyl-3-phenylurea]
- Preventive index ([5]; 500 ppm active ingredient): 0
- Preventive index ([4]; 10 ppm active ingredient): 3 (Preventive value 60 to 84%)

Structure (SMILES): CCCCC(O)(Cn1cncn1)c1ccc(Cl)cc1Cl (racemic) [Compound 10, (RS)-2-(2,4-dichlorophenyl)-1-(1H-1,2,4-triazol-1-yl)hexan-2-ol]
- Preventive index ([2]; 10 ppm active ingredient): 3 (Preventive value 60 to 84%)
- Preventive index ([3]; 10 g/10a active ingredient): 3 (Preventive value 60 to 84%)

Structure (SMILES): CC(C)NC(=O)N1CC(=O)N(c2cc(Cl)cc(Cl)c2)C1=O [Compound 8, 3-(3,5-dichlorophenyl)-N-isopropyl-2,4-dioxoimidazolidine-1-carboxamide]
- Preventive index ([2]; 10 ppm active ingredient): 3 (Preventive value 60 to 84%)
- Preventive index ([3]; 10 g/10a active ingredient): 3 (Preventive value 60 to 84%)

Structure (SMILES): CO/C=C(/C(=O)OC)c1ccccc1Oc1cc(Oc2ccccc2C#N)ncn1 [Compound 13, methyl (E)-2-{2-[6-(2-cyanophenoxy)pyrimidin-4-yloxy]phenyl}-3-methoxy-acrylate]
- Preventive index ([1]; 10 g/10a active ingredient): 3 (Preventive value 60 to 84%)
- Preventive index ([2]; 10 ppm active ingredient): 3 (Preventive value 60 to 84%)
- Preventive index ([4]; 10 ppm active ingredient): 3 (Preventive value 60 to 84%)

Structure (SMILES): O=C1CCc2cccc3c2N1CC3 [Compound 22, 1,2,5,6-tetrahydropyrrolo(3,2,1-i,j)quinolin-4-one]
- Preventive index ([1]; 10 g/10a active ingredient): 4 (Preventive value 85 to 94%)

Structure (SMILES): CC(C)Oc1cccc(NC(=O)c2ccccc2C(F)(F)F)c1 [Compound 1, α,α,α-trifluoro-3′-isopropoxy-O-toluanilide]
- Preventive index ([1]; 200 g/10a active ingredient): 0
- Preventive index ([5]; 500 ppm active ingredient): 0
- Preventive index ([6]; 200 ppm active ingredient): 0
- Preventive index ([4]; 10 ppm active ingredient): 3 (Preventive value 60 to 84%)

Structure (SMILES): C[C@H]1O[C@H](O[C@H]2[C@H](O)[C@@H](O)[C@@H](O)[C@H](O)[C@@H]2O)[C@@H](N)C[C@@H]1NC(=N)C(=O)O [Compound 19, kasugamycin]
- Preventive index ([6]; 20 ppm active ingredient): 4 (Preventive value 85 to 94%)

Structure (SMILES): C/C(=N/Nc1nc(C)cc(C)n1)c1ccccc1C [Compound 11, (Z)-2′-methylacetophenone 4,6-dimethylpyrimidin-2-ylhydrazone]
- Preventive index ([2]; 10 ppm active ingredient): 3 (Preventive value 60 to 84%)
- Preventive index ([3]; 10 g/10a active ingredient): 3 (Preventive value 60 to 84%)

Structure (SMILES): OCC1=C[C@H](N[C@H]2C[C@H](CO)[C@@H](O[C@@H]3O[C@H](CO)[C@@H](O)[C@H](O)[C@H]3O)[C@H](O)[C@H]2O)[C@H](O)[C@@H](O)[C@@H]1O [Compound 5, validamycin]
- Preventive index ([5]; 500 ppm active ingredient): 0
- Preventive index ([4]; 10 ppm active ingredient): 3 (Preventive value 60 to 84%)

Structure (SMILES): CCCCC(C#N)(Cn1cncn1)c1ccc(Cl)cc1 (stereo not shown) [Compound 9, 2-p-chlorophenyl-2-(1H-1,2,4-triazol-1-ylmethyl)hexanenitrile]
- Preventive index ([2]; 10 ppm active ingredient): 3 (Preventive value 60 to 84%)
- Preventive index ([3]; 10 g/10a active ingredient): 3 (Preventive value 60 to 84%)

Structure (SMILES): Cc1nc(C(F)(F)F)c(C(=O)Nc2c(Br)cc(OC(F)(F)F)cc2Br)s1 [Compound 3, N-(2,6-dibromo-4-trifluoromethoxyphenyl)-2-methyl-4-trifluoromethylthiazole-5-carboxamide]
- Preventive index ([5]; 500 ppm active ingredient): 0
- Preventive index ([4]; 10 ppm active ingredient): 3 (Preventive value 60 to 84%)

Structure (SMILES): Cc1c(Cl)cc(-c2ccc(=O)[nH]n2)cc1Cl [Compound 7, 6-(3,5-dichloro-4-methylphenyl)-3(2H)-pyridazinone]
- Preventive index ([4]; 10 ppm active ingredient): 2

Structure (SMILES): CNC(=O)/C(=N/OC)c1ccccc1Oc1ccccc1 [Compound 14, 2-methoxyimino-N-methyl-2-(2-phenoxy)phenyl-acetamide]
- Preventive index ([1]; 50 g/10a active ingredient): 3 (Preventive value 60 to 84%)
- Preventive index ([2]; 50 ppm active ingredient): 3 (Preventive value 60 to 84%)
- Preventive index ([4]; 50 ppm active ingredient): 3 (Preventive value 60 to 84%)

Structure (SMILES): CC(=O)O.CC(=O)O.CC(=O)O.N=C(N)NCCCCCCCCNCCCCCCCCNC(=N)N [Compound 12, 1,1′-iminodi(octamethylene)diguanidinium triacetate]
- Preventive index ([2]; 10 ppm active ingredient): 3 (Preventive value 60 to 84%)
- Preventive index ([3]; 10 g/10a active ingredient): 3 (Preventive value 60 to 84%)

Structure (SMILES): CC(NC(=O)C(C#N)C(C)(C)C)c1ccc(Cl)cc1Cl (stereo not shown) [Compound 21, N-[1-(2,4-dichlorophenyl)ethyl]-2-cyano-3,3-dimethylbuthaneamide]
- Preventive index ([5]; 5 ppm active ingredient): 4 (Preventive value 85 to 94%)

Structure (SMILES): CSC(=O)c1cccc2nnsc12 [Compound 24, S-methyl-benzo(1,2,3)-thiadiazole-7-carbothiolate]
- Preventive index ([1]; 50 g/10a active ingredient): 3 (Preventive value 60 to 84%)
